Test results taken from patent US9045482B2, “Pyrido[4,3-B]indoles and methods of use” (Medivation Technologies, Inc., priority 2009, dated 2015).

Target: T1, human recombinant histamine H2 receptor (Homo sapiens, UniProt P25021)
T1 construct: expressed in transfected cells; host or cells: Chinese hamster ovary (CHO) K1 cells
Assay: Histamine H2 radioligand binding (Aminopotentidine)
Details: read-out: Binding data (Percentage Inhibition) Histamine Binding H2
Description: To evaluate in radioligand binding assays the activity of compounds of the invention, human recombinant histamine H2 receptor expressed in Chinese hamster ovary (CHO) K1 cells [Ruat, M., Proc. Natl. Acad. Sci. USA. (1990), 87(5):1658] in a 50 mM Phosphate buffer, pH 7.4 was used. Compounds of the invention were incubated with 0.1 nM […] for 120 min at 25° C. Non-specific binding was estimated in the presence of 3 μM Tiotidine. Receptor proteins were filtered and washed, the filters were then counted to determine […] specifically bound. Compounds were screened at 1 μM or lower, using 1% DMSO as vehicle. Biochemical assay results are presented as the percent inhibition of specific binding in Table 2.

T1 sequence (P25021 whole entry): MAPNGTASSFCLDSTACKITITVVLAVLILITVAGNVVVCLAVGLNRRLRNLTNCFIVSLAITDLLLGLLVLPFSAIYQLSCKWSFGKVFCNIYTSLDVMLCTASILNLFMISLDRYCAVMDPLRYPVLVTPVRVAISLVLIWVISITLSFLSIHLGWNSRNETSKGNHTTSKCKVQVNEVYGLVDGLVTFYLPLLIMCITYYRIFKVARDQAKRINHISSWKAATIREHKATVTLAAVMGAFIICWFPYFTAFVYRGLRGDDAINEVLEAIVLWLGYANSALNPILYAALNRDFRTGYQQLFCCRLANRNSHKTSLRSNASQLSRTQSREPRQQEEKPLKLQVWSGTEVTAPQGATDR

For Fc1ccc(CCn2c3c(c4cc(Cl)ccc42)C2CCCN2CC3)cc1 (centres unmarked) [Compound 1, 7-(4-fluorophenethyl)-10-chloro-2,3,5,6,7,11c-hexahydro-1H-indolizino[7,8-b]indole], the inhibition at 1 µM was 15%.

Work on Fc1ccc(CCn2c3c(c4cc(Cl)ccc42)CN2CCCC2C3)cc1 (centres unmarked) [Compound 2, 10-(4-fluorophenethyl)-7-chloro-2,3,5,10,11,11a-hexahydro-1H-indolizino[7,6-b]indole] yielded an inhibition at 1 µM of 17%.
